Assay results from US10053721B2, “Antimicrobial resistance status determination device and method” (bioMerieux, Inc., priority 2015, dated 2018).
Where two headings read alike, the source gives them in different places.

Assays:
Format in all cases: cell-based
[1] = tested on: S. aureus strains; assay: Methicillin-resistant Staphylococcus aureus (MRSA) assay, optical density growth curves; details: 6 μg/mL cefoxitin
Procedure: The BacT/ALERT® SA bottles were inoculated as described in Example A. The positive broth dilution for the MRSA Assay was performed as follows: broth containing a S. aureus isolate was diluted 1:20 into glass tubes containing 9.0 mL of pre-warmed CAMBH, 0.05% saponin and ±6 μg/mL cefoxitin. Ten (10) S. aureus strains representing diverse phenotypes were tested (5 resistant and 5 sensitive).
(§1) Each strain was sub-cultured without the drug as a growth control. The resistance assay tubes (15 mL tubes fitted with septum screw-caps for diluting and sampling) were incubated in a custom-built, heated, rocking optical density unit, placed within a resistance module, and time-dependent changes in the optical at 660 nm of each culture tube were measured every 45 seconds for periods of up to 12 hours. To maximize microbial growth and minimize measurement noise, tubes were rocked between +/−18 degrees from horizontal at 36 cycles/min for 30 seconds, then returned to the upright position for 15 seconds before an optical density reading was taken.
To detect MRSA directly from positive blood cultures, 10 broth samples containing S. aureus strains representing diverse phenotypes were sub-cultured for up to 12 hours with and without 6 μg/mL of cefoxitin (5 resistant and 5 sensitive strains).
To better discriminate microbial growth from background increases in media optical density, slopes of the growth curves were calculated and plotted (FIGS. 7B, 7D, and 7F).

[2] = tested on: K. pneumoniae or E. coli isolates; assay: Carbapenem-resistant Enterobacteriaceae (CRE) assay, optical density at 660 nm over time; details: 4 ug/mL imipenem; 8 strains harboring carbapenemase genes
Procedure: BacT/ALERT® SA bottles were inoculated with 10 mL of SPS-anticoagulated normal human blood and seeded with <100 CFU of S. aureus, E. faecalis, E. faecium, E. coli and K. pneumoniae isolates. Within 15 minutes of flagging positive, the bottles were manually unloaded and either tested immediately or kept on ice until tested. If chilled, a positive bottle was warmed in a 36° C. water bath for 15-20 minutes before removing samples. The positive broth dilutions were performed manually. […]
as §1, with “taken. […]” for “taken.”

[3] = tested on: E. faecalis strains; assay: Vancomycin-resistant enterococci (VRE) assay, optical density growth curves
Procedure: (§2) The BacT/ALERT® SA bottles were inoculated as described in Example A. The positive broth dilution for the […] was performed as follows: broth containing E. faecium or E. faecalis isolates was spun for 10 seconds @10,600 g in a 1.5 mL microcentrifuge tube to sediment red blood cells (RBC). One (1.0) mL of the RBC depleted supernatant was recovered and diluted into 4.0 mL of pre-warmed BacT/ALERT® SA media±6 μg/mL vancomycin. Thirty-one (31) E. faecium and 7 E. faecalis strains were tested (23 resistant and 15 sensitive).
(§3) To rapidly detect VRE in positive blood cultures, 38 broth samples containing E. faecium and E. faecalis strains were depleted of red blood cells and then diluted 1:5 in BacT/ALERT® SA blood culture media with and without 6 μg/mL of vancomycin (23 resistant and 15 sensitive strains).

[4] = tested on: E. faecium strains; assay: as above; details: 6 μg/mL vancomycin; all 17 resistant E. faecium strains
Procedure: as §2, §3

[5] = tested on: van B containing E. faecalis strains; assay: MIC of van B containing E. faecalis strains

SMILES: CO[C@@]1(NC(=O)Cc2cccs2)C(=O)N2C(C(=O)O)=C(COC(N)=O)CS[C@@H]21 [cefoxitin]
- time to growth in cefoxitin media ([1]; 3 of the 5 MRSA strains): ≤ 2 h
- growth in cefoxitin media ([1]; 5 sensitive S. aureus strains, by 12 hours): failed to grow
- slopes of the growth curves ([1]; 5 sensitive strains, after 60 min equilibration, over 720 min): decreasing or flat slopes
- time to growth in cefoxitin media ([1]; Positive Control MRSA strain ATCC 43300): ≤ 2.5 h
- time to growth in cefoxitin media ([1]; weakly resistant MRSA strain (E-test MIC=16 ug/mL)): ≤ 4.5 h

SMILES: C[C@@H](O)[C@H]1C(=O)N2C(C(=O)O)=C(SCCN=CN)C[C@H]12 [imipenem]
- time to growth in the presence of imipenem [2]: ≤ 2 h

SMILES: CN[C@H](CC(C)C)C(=O)N[C@H]1C(=O)N[C@@H](CC(N)=O)C(=O)N[C@H]2C(=O)N[C@H]3C(=O)N[C@H](C(=O)N[C@H](C(=O)O)c4cc(O)cc(O)c4-c4cc3ccc4O)[C@H](O)c3ccc(c(Cl)c3)Oc3cc2cc(c3O[C@@H]2O[C@H](CO)[C@@H](O)[C@H](O)[C@H]2O[C@H]2C[C@](C)(N)[C@H](O)[C@H](C)O2)Oc2ccc(cc2Cl)[C@H]1O [vancomycin]
- time to detection of growth with vancomycin ([3]; 6 μg/mL vancomycin, three low MIC van B containing E. faecalis strains): 3 to 4 h
- time to detection of growth with vancomycin ([3]; delayed van B isolates, starting subculture optical density raised from <0.10 to 0.25-0.45, data not shown): 2 to 2.5 h
- time to detection of growth with vancomycin [4]: ≤ 2 h
- MIC ([5]; CLSI Positive Control strain ATCC 51299, in µg/mL): 16-24
- MIC ([5]; Enterococcus faecalis, three van B containing E. faecalis strains, read-out: MIC): 16 to 64 µg/mL
